Experiment [1] concerns the target T1, Btk (Homo sapiens (Human), UniProt Q06187). The experiment can be described thus: Btk kinase assay, method B (Kinase-Glo Plus luminescence). Type of experiment: biochemical. Particulars: 10 μM ATP. As for the experimental part: (§1) An in vitro assay which determines the ability of a test compound to inhibit Btk.
b) Method B conducts the kinase assay with the following condition and procedure: The assay was performed using Kinase-Glo Plus luminescence kinase assay kit (Promega). It measures kinase activity by quantitating the amount of ATP remaining in solution following a kinase reaction. The luminescent signal from the assay is correlated with the amount of ATP present and is inversely correlated with the amount of kinase activity.
The compounds were diluted in 10% DMSO and 5 μl of the dilution was added to a 50 μl reaction so that the final concentration of DMSO is 1% in all of reactions. All of the enzymatic reactions were conducted at 30° C. for 40 minutes. […] After the enzymatic reaction, 50 μl of Kinase-Glo Plus Luminescence kinase assay solution (Promega) was added to each reaction and incubate the plate for 5 minutes at room temperature. Luminescence signal was measured using a BioTek Synergy 2 microplate reader. […] The luminescence data were analyzed using the computer software, Graphpad Prism. The difference between luminescence intensities in the absence of Btk (Lut) and in the presence of Btk (Luc) was defined as 100% activity (Lut−Luc). […] The IC50 value was determined by the concentration causing a half-maximal percent activity. […]

In experiment [2] the target is T1, Btk. The experiment can be described thus: Btk kinase assay, method A (33P-ATP radiometric). Type of experiment: biochemical. The following applies: 10 μM ATP. As for the experimental part:
as §1
a) Method A conducts the kinase assay with the following condition and procedure: Reagent: Base Reaction Buffer; 20 mM Hepes (pH 7.5), 10 mM MgCl2, 1 mM EGTA, 0.02% Brij35, 0.02 mg/ml BSA, 0.1 mM Na3VO4, 2 mM DTT, 1% DMSO.
1. Prepare indicated substrate in freshly prepared Base Reaction Buffer.
2. Deliver any required cofactors to the substrate solution obtained in step 1.
3. Deliver indicated kinase into the substrate solution prepared in step 2 and gently mix.
4. Deliver compounds in DMSO into the kinase reaction mixture prepared in step 3.
5. Deliver ^33P-ATP (specific activity 0.01 μCi/μl final) into the reaction mixture prepared in step 4 to initiate the reaction.
6. Incubate kinase reaction for 120 min. at room temperature.
7. Reactions are spotted onto P81 ion exchange paper (Whatman #3698-915).
8. Washing filters extensively in 0.75% Phosphoric acid.
Compounds were tested in 10-dose IC50 mode with 3-fold serial dilution starting at 10 μM; Reactions were carried out at 10 μM ATP.

Experiment [3] relates to BTK signaling in Ramos cells. The experiment in a line: Btk Ramos Cellular Assay (phosphorylation of BTK substrate PLCγ2). Type of experiment: cell-based. Particulars: 1 hour compound incubation, anti-human IgM stimulation, PLCγ2 phosphorylation blot, read-out: inhibition of BTK signaling in Ramos cells, IC50. As for the experimental part: Ramos cells were grown in suspension in T225 flasks, spun down, resuspended in 50 mL serum-free media and incubated for 1 hour. Compound was added to Ramos cells in serum free media to a final concentration of 1, 0.1, 0.01, or 0.001 μM. Ramos cells were incubated with compound for 1 hour, washed again and resuspended in 100 μL serum-free media. Cells were then stimulated with 1 μg of goat F(ab′)2 Anti-Human IgM and incubated on ice for 10 minutes to activate B cell receptor signaling pathways. After 10 minutes, the cells were washed once with PBS and then lysed on ice with Invitrogen Cell Extraction buffer. Sixteen μg total protein from lysates was loaded on gels and blots were probed for phosphorylation of the BTK substrate PLCγ2.

T1 sequence (Q06187 whole entry, species assumed): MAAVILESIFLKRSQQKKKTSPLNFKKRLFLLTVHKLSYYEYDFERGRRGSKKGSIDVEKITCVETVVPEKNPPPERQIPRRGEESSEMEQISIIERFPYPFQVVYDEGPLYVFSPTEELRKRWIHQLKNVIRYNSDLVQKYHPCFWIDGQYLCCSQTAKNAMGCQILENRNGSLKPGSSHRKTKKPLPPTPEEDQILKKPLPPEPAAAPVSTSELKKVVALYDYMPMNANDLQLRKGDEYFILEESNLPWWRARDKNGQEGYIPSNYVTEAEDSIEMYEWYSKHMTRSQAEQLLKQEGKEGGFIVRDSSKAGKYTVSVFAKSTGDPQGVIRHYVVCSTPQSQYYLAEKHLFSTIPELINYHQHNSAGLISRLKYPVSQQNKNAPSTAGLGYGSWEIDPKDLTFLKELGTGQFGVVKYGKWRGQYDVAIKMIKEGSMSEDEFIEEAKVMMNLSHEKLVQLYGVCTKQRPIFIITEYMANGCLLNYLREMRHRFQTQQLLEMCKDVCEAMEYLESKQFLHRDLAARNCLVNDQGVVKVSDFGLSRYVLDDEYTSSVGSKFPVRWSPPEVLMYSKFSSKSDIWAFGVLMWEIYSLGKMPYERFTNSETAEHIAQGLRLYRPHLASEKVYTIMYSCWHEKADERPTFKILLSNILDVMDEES

In the case of `CN(C)C/C=C/C(=O)Nc1ccc2ncc(C#N)c(Nc3ccc(Oc4ccccc4)cc3)c2c1` [Example 2, (E)-N-(3-cyano-4-((4-phenoxyphenyl)amino)quinolin-6-yl)-4-(dimethylamino)but-2-enamide], the IC50 in experiment [1] is under 100 nM.
As for `CCOc1cc2ncc(C#N)c(Nc3ccc(Oc4ccccc4)cc3)c2cc1NC(=O)/C=C/CN(C)C` [Example 1, (E)-N-(3-cyano-7-ethoxy-4-((4-phenoxyphenyl)amino)quinolin-6-yl)-4-(dimethylamino)but-2-enamide], the IC50 in experiment [1] was under 100 nM; in experiment [2] it was 0.64 nM; in experiment [3], under 100 nM.

Source of the values: patent US9353062B2, “Substituted quinolines as bruton's tyrosine kinases inhibitors” (HangzhouDeRenYuCheng Biotechnology Ltd, priority 2012, dated 2016).
